Source: PubChem BioAssay AID2060333 (Molecular Pharmacology Branch, DTP, NCI, 2025)
Several values for one entry are separate records, joined by “and”; a condition that tells them apart may be missing. Equal entries are not always repeated.

Tested on: 845751-090-R-J2-PDC tumor spheroid viability
Test: Anticancer human tumor 845751-090-R-J2-PDC patient-derived head and neck squamous carcinoma cell line growth inhibition [IpAb]
Conditions: spheroids with HUVEC and MSC; for viability, T/C: stronger effect = lower value; active = viability on the fitted dose curve at most 10% of control; inactive = the rest
Method in brief: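 Combinations with ipatasertib or abemaciclib were tested on tumour spheroids holding HUVEC (25%) and MSC (15%) alongside 60% malignant cells. Top concentration was at or near clinical Cmax (10 microM if undefined), descending in half-log steps.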

[1] = curve of first compound, second compound 0.1 µM
[2] = curve of first compound, second compound 0.316 µM
[3] = curve of first compound, second compound 1 µM
[4] = curve of first compound, second compound 3.16 µM
[5] = curve of first compound, second compound 10 µM
[6] = second compound 0.1 µM, first compound 0.0316 µM
[7] = second compound 0.1 µM, first compound 0.1 µM
[8] = second compound 0.1 µM, first compound 0.316 µM
[9] = second compound 0.1 µM, first compound 1 µM
[10] = second compound 0.316 µM, first compound 0.0316 µM
[11] = second compound 0.316 µM, first compound 0.1 µM
[12] = second compound 0.316 µM, first compound 0.316 µM
[13] = second compound 0.316 µM, first compound 1 µM
[14] = second compound 1 µM, first compound 0.0316 µM
[15] = second compound 1 µM, first compound 0.1 µM
[16] = second compound 1 µM, first compound 0.316 µM
[17] = second compound 1 µM, first compound 1 µM
[18] = second compound 3.16 µM, first compound 0.0316 µM
[19] = second compound 3.16 µM, first compound 0.1 µM
[20] = second compound 3.16 µM, first compound 0.316 µM
[21] = second compound 3.16 µM, first compound 1 µM
[22] = second compound 10 µM, first compound 0.0316 µM
[23] = second compound 10 µM, first compound 0.1 µM
[24] = second compound 10 µM, first compound 0.316 µM
[25] = second compound 10 µM, first compound 1 µM
[26] = second compound 0.1 µM, first compound 0.00316 µM
[27] = second compound 0.1 µM, first compound 0.01 µM
[28] = second compound 0.316 µM, first compound 0.00316 µM
[29] = second compound 0.316 µM, first compound 0.01 µM
[30] = second compound 1 µM, first compound 0.00316 µM
[31] = second compound 1 µM, first compound 0.01 µM
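Also: spheroids exposed to compounds for 7 days before readout.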
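For viability, T/C in this document: CTG3D luminescence normalised so that 100% = DMSO vehicle control.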

Cc1nc(NC(=O)N2CCCC2C(N)=O)sc1-c1ccnc(C(C)(C)C(F)(F)F)c1 (stereo not given) + CC(C)NCC(C(=O)N1CCN(c2ncnc3c2C(C)CC3O)CC1)c1ccc(Cl)cc1
active: viability, T/C (second compound 0.316 µM, first compound 10 µM) 7.03% | viability, T/C (second compound 1 µM, first compound 10 µM) 7.97% | viability, T/C (second compound 3.16 µM, first compound 10 µM) 7.77% | viability, T/C (second compound 10 µM, first compound 3.16 µM) 9.58% | viability, T/C (second compound 10 µM, first compound 10 µM) 5.74%
inactive: viability, T/C [6] 49.2% | viability, T/C [7] 54% | viability, T/C [8] 27.6% | viability, T/C [9] 19.2% | viability, T/C (second compound 0.1 µM, first compound 3.16 µM) 15.5% | viability, T/C (second compound 0.1 µM, first compound 10 µM) 8.29% | viability, T/C [10] 24.5% | viability, T/C [11] 30.9% | viability, T/C [12] 20.9% | viability, T/C [13] 15.6% | viability, T/C (second compound 0.316 µM, first compound 3.16 µM) 13.1% | viability, T/C [14] 17.4% | viability, T/C [15] 21.7% | viability, T/C [16] 18% | viability, T/C [17] 13.8% | viability, T/C (second compound 1 µM, first compound 3.16 µM) 10.6% | viability, T/C [18] 16% | viability, T/C [19] 15.8% | viability, T/C [20] 14.1% | viability, T/C [21] 12.7% | viability, T/C (second compound 3.16 µM, first compound 3.16 µM) 9.92% | viability, T/C [22] 13.9% | viability, T/C [23] 13.1% | viability, T/C [24] 17.2% | viability, T/C [25] 12%
< 31.6 nM: IC50 [2] | IC50 [3] | IC50 [4] | IC50 [5]
108 nM: IC50 [1]

CC(=O)c1c(C)c2cnc(Nc3ccc(N4CCNCC4)cn3)nc2n(C2CCCC2)c1=O
inactive: viability, T/C (compound 0.000949 µM) 86.5% and 84.4% | viability, T/C (compound 0.003 µM) 81.2% and 104% | viability, T/C (compound 0.00949 µM) 109% and 90.3% | viability, T/C (compound 0.03 µM) 133% and 91.8% | viability, T/C (compound 0.0949 µM) 112% and 101% | viability, T/C (compound 0.3 µM) 165% and 106%
> 300 nM: IC50 (curve of compound)

COc1c(OCCCN2CCOCC2)ccc2c3n(c(=NC(=O)c4cnc(N)nc4)nc12)CCN3 + CCN1CCN(Cc2ccc(Nc3ncc(F)c(-c4cc(F)c5nc(C)n(C(C)C)c5c4)n3)nc2)CC1
active: viability, T/C (second compound 0.01 µM, first compound 0.316 µM) 10.6% | viability, T/C (second compound 0.01 µM, first compound 1 µM) 4.54% | viability, T/C (second compound 0.0316 µM, first compound 0.316 µM) 8.73% | viability, T/C (second compound 0.0316 µM, first compound 1 µM) 3.86% | viability, T/C [8] 12.8% | viability, T/C [9] 3.55% | viability, T/C [12] 11.7% | viability, T/C [13] 4.79% | viability, T/C [17] 5.48%
4.99 nM: IC50 (curve of first compound, second compound 0.0316 µM)
10.6 nM: IC50 [3]
6.38 nM: IC50 [2]
7.18 nM: IC50 (curve of first compound, second compound 0.01 µM)
5.23 nM: IC50 [1]
inactive: viability, T/C (second compound 0.01 µM, first compound 0.00316 µM) 63.3% | viability, T/C (second compound 0.01 µM, first compound 0.01 µM) 43.5% | viability, T/C (second compound 0.01 µM, first compound 0.0316 µM) 30.8% | viability, T/C (second compound 0.01 µM, first compound 0.1 µM) 13.7% | viability, T/C (second compound 0.0316 µM, first compound 0.00316 µM) 54% | viability, T/C (second compound 0.0316 µM, first compound 0.01 µM) 43.6% | viability, T/C (second compound 0.0316 µM, first compound 0.0316 µM) 28.3% | viability, T/C (second compound 0.0316 µM, first compound 0.1 µM) 11.9% | viability, T/C [26] 56.5% | viability, T/C [27] 41.6% | viability, T/C [6] 26.3% | viability, T/C [7] 11.7% | viability, T/C [28] 68.2% | viability, T/C [29] 35.9% | viability, T/C [10] 24.6% | viability, T/C [11] 15.8% | viability, T/C [30] 60% | viability, T/C [31] 54.1% | viability, T/C [14] 31.2% | viability, T/C [15] 21.5% | viability, T/C [16] 12.6%

CCN1CCN(Cc2ccc(Nc3ncc(F)c(-c4cc(F)c5nc(C)n(C(C)C)c5c4)n3)nc2)CC1
> 1000 nM: IC50 (compound alone, run of 05/18/2021)

COc1c(OCCCN2CCOCC2)ccc2c3n(c(=NC(=O)c4cnc(N)nc4)nc12)CCN3 + CC(C)NCC(C(=O)N1CCN(c2ncnc3c2C(C)CC3O)CC1)c1ccc(Cl)cc1
active: viability, T/C [9] 3.52% | viability, T/C [13] 5.73% | viability, T/C [15] 9.67% | viability, T/C [16] 5.4% | viability, T/C [17] 2.49% | viability, T/C [20] 3.93% | viability, T/C [21] 2.76% | viability, T/C [23] 5.23% | viability, T/C [24] 2.57% | viability, T/C [25] 1.62%
< 3.16 nM: IC50 [2] | IC50 [3] | IC50 [4] | IC50 [5]
7.18 nM: IC50 [1]
inactive: viability, T/C [26] 60.9% | viability, T/C [27] 46.1% | viability, T/C [6] 32.1% | viability, T/C [7] 19.5% | viability, T/C [8] 16.5% | viability, T/C [28] 26.4% | viability, T/C [29] 27.3% | viability, T/C [10] 38.4% | viability, T/C [11] 17% | viability, T/C [12] 9.83% | viability, T/C [30] 34.6% | viability, T/C [31] 21.8% | viability, T/C [14] 17.1% | viability, T/C (second compound 3.16 µM, first compound 0.00316 µM) 22.5% | viability, T/C (second compound 3.16 µM, first compound 0.01 µM) 21.9% | viability, T/C [18] 17.7% | viability, T/C [19] 7.76% | viability, T/C (second compound 10 µM, first compound 0.00316 µM) 17.4% | viability, T/C (second compound 10 µM, first compound 0.01 µM) 17.7% | viability, T/C [22] 13.4%

COc1c(OCCCN2CCOCC2)ccc2c3n(c(=NC(=O)c4cnc(N)nc4)nc12)CCN3
4.09% and 9.06%: viability, T/C (compound 1 µM)
inactive: viability, T/C (compound 0.00316 µM) 85.1% and 76.3% | viability, T/C (compound 0.01 µM) 62.6% and 60.3% | viability, T/C (compound 0.0316 µM) 36.9% and 35.4% | viability, T/C (compound 0.1 µM) 19.8% and 22.2% | viability, T/C (compound 0.316 µM) 13.8% and 16.1%
17.6 nM and 16.1 nM: IC50 (curve of compound)
